From ChEMBL document CHEMBL3885881, “DrugMatrix”

Species on record: Rattus norvegicus
Test: DrugMatrix - Regimen: Daily Repeat
Type: toxicity, organism-based, Sprague-Dawley
Set-up: regimen Daily Repeat, gender Male, age 6-8 weeks
Conditions: in vivo, sc, route subcutaneous, […]; for ABSOLUTE BASOPHIL / ABSOLUTE EOSINOPHIL / ABSOLUTE LYMPHOCYTE / ABSOLUTE MONOCYTE / ABSOLUTE SEGMENTED NEUTROPHIL / BASOPHIL / EOSINOPHIL / ERYTHROCYTE COUNT / HEMATOCRIT / HEMOGLOBIN / LEUKOCYTE COUNT / LYMPHOCYTE / MEAN CORPUSCULAR HEMOGLOBIN / MEAN CORPUSCULAR HEMOGLOBIN CONCENTRATION / MEAN CORPUSCULAR VOLUME / MONOCYTE / NEUTROPHIL / NUCLEATED RED BLOOD CELLS / PLATELET COUNT: tissue Blood; for ALANINE AMINOTRANSFERASE / ALBUMIN / ALKALINE PHOSPHATASE / ASPARTATE AMINOTRANSFERASE / BLOOD UREA NITROGEN / CARBON DIOXIDE / CHLORIDE / CHOLESTEROL / CREATINE PHOSPHOKINASE / CREATININE / GLUCOSE / LACTATE DEHYDROGENASE / LIPASE / PHOSPHORUS / POTASSIUM / SODIUM / TOTAL BILIRUBIN / TOTAL PROTEIN / URIC ACID: tissue Plasma
[1] = 0.8 mg/kg, 120 h, dose level Low, time 5 day
[2] = 8 mg/kg, 72 h, dose level High, time 3 day
[3] = 8 mg/kg, 120 h, dose level High, time 5 day

Oc1c(Cl)cc(Cl)c(Cl)c1Cc1c(O)c(Cl)cc(Cl)c1Cl [HEXACHLOROPHENE]
ABSOLUTE BASOPHIL [1]: 0 CELLS/uL
ABSOLUTE EOSINOPHIL [1]: 0 CELLS/uL
ABSOLUTE LYMPHOCYTE [1]: 15077 CELLS/uL
ABSOLUTE MONOCYTE [1]: 281 CELLS/uL
ABSOLUTE SEGMENTED NEUTROPHIL [1]: 1342 CELLS/uL
BASOPHIL [1]: 0%
EOSINOPHIL [1]: 0%
ERYTHROCYTE COUNT [1]: 5.52 x10E6/uL
HEMATOCRIT [1]: 35.07%
HEMOGLOBIN [1]: 13.27 G/DL
LEUKOCYTE COUNT [1]: 16.7 x10E3/uL
LYMPHOCYTE [1]: 90.33%
MEAN CORPUSCULAR HEMOGLOBIN [1]: 24.07 pg
MEAN CORPUSCULAR HEMOGLOBIN CONCENTRATION [1]: 37.9 G/DL
MEAN CORPUSCULAR VOLUME [1]: 63.53 fL
MONOCYTE [1]: 1.67%
NEUTROPHIL [1]: 8%
NUCLEATED RED BLOOD CELLS [1]: 0 /100WBC
PLATELET COUNT [1]: 1358.33 x10E3/uL
ALANINE AMINOTRANSFERASE [1]: 45.33 u/L
ALBUMIN [1]: 4.07 G/DL
ALKALINE PHOSPHATASE [1]: 296.33 u/L
ASPARTATE AMINOTRANSFERASE [1]: 78 u/L
BLOOD UREA NITROGEN [1]: 15.67 mg/dL
CARBON DIOXIDE [1]: 26.67 mmol/L
CHLORIDE [1]: 104.67 MEQ/L
CHOLESTEROL [1]: 74.67 mg/dL
CREATINE PHOSPHOKINASE [1]: 237 u/L
CREATININE [1]: 0.35 mg/dL
GLUCOSE [1]: 154.33 mg/dL
LACTATE DEHYDROGENASE [1]: 156 u/L
LIPASE [1]: 11 u/L
PHOSPHORUS [1]: 11.83 mg/dL
POTASSIUM [1]: 6.6 MEQ/L
SODIUM [1]: 144.67 MEQ/L
TOTAL BILIRUBIN [1]: 0.13 mg/dL
TOTAL PROTEIN [1]: 5.8 G/DL
URIC ACID [1]: 1.47 mg/dL
ABSOLUTE BASOPHIL [2]: 0 CELLS/uL
ABSOLUTE EOSINOPHIL [2]: 49.67 CELLS/uL
ABSOLUTE LYMPHOCYTE [2]: 12140.67 CELLS/uL
ABSOLUTE MONOCYTE [2]: 337 CELLS/uL
ABSOLUTE SEGMENTED NEUTROPHIL [2]: 1839.33 CELLS/uL
BASOPHIL [2]: 0%
EOSINOPHIL [2]: 0.33%
ERYTHROCYTE COUNT [2]: 5.89 x10E6/uL
HEMATOCRIT [2]: 36.63%
HEMOGLOBIN [2]: 13.43 G/DL
LEUKOCYTE COUNT [2]: 14.37 x10E3/uL
LYMPHOCYTE [2]: 84.67%
MEAN CORPUSCULAR HEMOGLOBIN [2]: 22.8 pg
MEAN CORPUSCULAR HEMOGLOBIN CONCENTRATION [2]: 36.7 G/DL
MEAN CORPUSCULAR VOLUME [2]: 62.27 fL
MONOCYTE [2]: 2.33%
NEUTROPHIL [2]: 12.67%
NUCLEATED RED BLOOD CELLS [2]: 0 /100WBC
PLATELET COUNT [2]: 1253 x10E3/uL
ALANINE AMINOTRANSFERASE [2]: 52 u/L
ALBUMIN [2]: 4.1 G/DL
ALKALINE PHOSPHATASE [2]: 314.33 u/L
ASPARTATE AMINOTRANSFERASE [2]: 87.67 u/L
BLOOD UREA NITROGEN [2]: 16.67 mg/dL
CARBON DIOXIDE [2]: 22.33 mmol/L
CHLORIDE [2]: 105.33 MEQ/L
CHOLESTEROL [2]: 87.33 mg/dL
CREATINE PHOSPHOKINASE [2]: 258.67 u/L
CREATININE [2]: 0.21 mg/dL
GLUCOSE [2]: 187.33 mg/dL
LACTATE DEHYDROGENASE [2]: 132 u/L
LIPASE [2]: 9.67 u/L
PHOSPHORUS [2]: 11.9 mg/dL
POTASSIUM [2]: 5.67 MEQ/L
SODIUM [2]: 146.53 MEQ/L
TOTAL BILIRUBIN [2]: 0.17 mg/dL
TOTAL PROTEIN [2]: 5.93 G/DL
URIC ACID [2]: 2.47 mg/dL
ABSOLUTE BASOPHIL [3]: 0 CELLS/uL
ABSOLUTE EOSINOPHIL [3]: 154 CELLS/uL
ABSOLUTE LYMPHOCYTE [3]: 13307.33 CELLS/uL
ABSOLUTE MONOCYTE [3]: 238 CELLS/uL
ABSOLUTE SEGMENTED NEUTROPHIL [3]: 1100.67 CELLS/uL
BASOPHIL [3]: 0%
EOSINOPHIL [3]: 1%
ERYTHROCYTE COUNT [3]: 5.91 x10E6/uL
HEMATOCRIT [3]: 35.87%
HEMOGLOBIN [3]: 13.17 G/DL
LEUKOCYTE COUNT [3]: 14.8 x10E3/uL
LYMPHOCYTE [3]: 90%
MEAN CORPUSCULAR HEMOGLOBIN [3]: 22.3 pg
MEAN CORPUSCULAR HEMOGLOBIN CONCENTRATION [3]: 36.7 G/DL
MEAN CORPUSCULAR VOLUME [3]: 60.8 fL
MONOCYTE [3]: 1.67%
NEUTROPHIL [3]: 7.33%
NUCLEATED RED BLOOD CELLS [3]: 0 /100WBC
PLATELET COUNT [3]: 1301.67 x10E3/uL
ALANINE AMINOTRANSFERASE [3]: 46 u/L
ALBUMIN [3]: 4 G/DL
ALKALINE PHOSPHATASE [3]: 378.33 u/L
ASPARTATE AMINOTRANSFERASE [3]: 85 u/L
BLOOD UREA NITROGEN [3]: 16.33 mg/dL
CARBON DIOXIDE [3]: 27.33 mmol/L
CHLORIDE [3]: 104.67 MEQ/L
CHOLESTEROL [3]: 70.33 mg/dL
CREATINE PHOSPHOKINASE [3]: 346.67 u/L
CREATININE [3]: 0.2 mg/dL
GLUCOSE [3]: 174 mg/dL
LACTATE DEHYDROGENASE [3]: 129.67 u/L
LIPASE [3]: 9.33 u/L
PHOSPHORUS [3]: 11.03 mg/dL
POTASSIUM [3]: 5.65 MEQ/L
SODIUM [3]: 146 MEQ/L
TOTAL BILIRUBIN [3]: 0.2 mg/dL
TOTAL PROTEIN [3]: 5.83 G/DL
URIC ACID [3]: 1.63 mg/dL
